In article PMC8074287, “Analgesic and Anticancer Activity of Benzoxazole Clubbed 2-Pyrrolidinones as Novel Inhibitors of Monoacylglycerol Lipase” (Molecules, 2021):

What was measured:
Assay in all cases: NCI60 single-dose SRB assay
Assay type in all cases: cell-based, human
786-0 = conditions: 786-0, Renal Cancer, 10 μM
Protocol: (§1) Compounds 19 and 20 were supplied to National Cancer Institute (USA), for sulforhodamine B (SRB) assay and anticancer screening. Single-dose (10 µM) assay results for compounds 19 and 20 were provided as a mean of percent growth (% G) and growth inhibition (% GI) against 60 cell lines of nine types of cancers and are tabulated in Table 4. […] Both the compounds 19 and 20 were also found active on UO-31 renal cancer cell line with % GI of 21.18 and 29.95, respectively.
(§2) Compounds 19 and 20 were supplied to National Cancer Institute (Bethesda, Maryland, USA), for in vitro sulforhodamine B (SRB) assay, anticancer screening on 60 cell lines of cancers of leukemia, melanoma, and tumors of the kidney, brain, breast, lung, colon, ovary, and prostate, as per their standard protocol. One dose anticancer results (NCI, USA) of compounds 19 and 20 are provided in the Supplementary Materials.

ACHN = conditions: Renal Cancer, 10 μM
Protocol: as §1, §2

HCC-2998 = conditions: HCC-2998, Colon Cancer, 10 μM
Protocol: as §1, §2

HCT-116 = conditions: HCT-116, Colon Cancer, 10 μM
Protocol: as §1, §2

HOP-62 = conditions: HOP-62, Non-Small Cell Lung Cancer, 10 μM
Protocol: as §1, §2

HOP-92 = conditions: HOP-92, Non-Small Cell Lung Cancer, 10 μM
Protocol: as §1, §2

HT29 = conditions: HT29, Colon Cancer, 10 μM
Protocol: as §1, §2

IGROV1 = conditions: IGROV1, Ovarian Cancer, 10 μM
Protocol: as §1, §2

K-562 = conditions: K-562, Leukemia, 10 μM
Protocol: as §1, §2

KM12 = conditions: KM12, Colon Cancer, 10 μM
Protocol: as §1, §2

LOX IMVI = conditions: Melanoma, 10 μM
Protocol: as §1, §2

M14 = conditions: M14, Melanoma, 10 μM
Protocol: as §1, §2

MCF7 = conditions: MCF7, Breast Cancer, 10 μM
Protocol: as §1, §2

MOLT-4 = conditions: MOLT-4, Leukemia, 10 μM
Protocol: as §1, §2

NCI-H226 = conditions: NCI-H226, Non-Small Cell Lung Cancer, 10 μM
Protocol: as §1, §2

NCI-H23 = conditions: NCI-H23, Non-Small Cell Lung Cancer, 10 μM
Protocol: as §1, §2

NCI-H322M = conditions: Non-Small Cell Lung Cancer, 10 μM
Protocol: as §1, §2

NCI/ADR-RES = conditions: Ovarian Cancer, 10 μM
Protocol: as §1, §2

OVCAR-3 = conditions: OVCAR-3, Ovarian Cancer, 10 μM
Protocol: as §1, §2

OVCAR-5 = conditions: OVCAR-5, Ovarian Cancer, 10 μM
Protocol: as §1, §2

PC-3 = conditions: PC-3, Prostate Cancer, 10 μM
Protocol: as §1, §2

RPMI-8226 = conditions: RPMI-8226, Leukemia, 10 μM
Protocol: as §1, §2

SF-268 = conditions: SF-268, CNS Cancer, 10 μM
Protocol: as §1, §2

SF-539 = conditions: SF-539, CNS Cancer, 10 μM
Protocol: as §1, §2

SN12C = conditions: Renal Cancer, 10 μM
Protocol: as §1, §2

SNB-19 = conditions: SNB-19, CNS Cancer, 10 μM
Protocol: as §1, §2

SR = conditions: Leukemia, 10 μM
Protocol: as §1, §2

T-47D = conditions: Breast Cancer, 10 μM
Protocol: as §1, §2

TK-10 = conditions: TK-10, Renal Cancer, 10 μM
Protocol: as §1, §2

U251 = conditions: U251, CNS Cancer, 10 μM
Protocol: as §1, §2

UACC-257 = conditions: UACC-257, Melanoma, 10 μM
Protocol: as §1, §2

UACC-62 = conditions: UACC-62, Melanoma, 10 μM
Protocol: as §1, §2

Compound: O=C1CC(c2nc3ccccc3o2)CN1c1ccc([N+](=O)[O-])cc1 (stereo not drawn) [Compound 19, 4-(Benzo[d]oxazol-2-yl)-1-(4-nitrophenyl)pyrrolidin-2-one]
- % G (786-0): 104.06%
- % GI (786-0): −4.06%
- % G (ACHN): 91.70%
- % GI (ACHN): 8.3%
- % G (HCC-2998): 102.05%
- % GI (HCC-2998): −2.05%
- % G (HCT-116): 102.14%
- % GI (HCT-116): −2.14%
- % G (HOP-62): 85.04%
- % GI (HOP-62): 14.96%
- % G (HOP-92): 104.72%
- % GI (HOP-92): −4.72%
- % G (HT29): 99.25%
- % GI (HT29): 0.75%
- % G (IGROV1): 104.14%
- % GI (IGROV1): −4.14%
- % G (K-562): 98.41%
- % GI (K-562): 1.59%
- % G (KM12): 105.43%
- % GI (KM12): −5.43%
- % G (LOX IMVI): 89.06%
- % GI (LOX IMVI): 10.94%
- % G (M14): 101.37%
- % GI (M14): −1.37%
- % G (MCF7): 99.19%
- % GI (MCF7): 0.81%
- % G (MOLT-4): 93.64%
- % GI (MOLT-4): 6.36%
- % G (NCI-H226): 98.63%
- % GI (NCI-H226): 1.37%
- % G (NCI-H23): 93.07%
- % GI (NCI-H23): 6.93%
- % G (NCI-H322M): 94.18%
- % GI (NCI-H322M): 5.82%
- % G (NCI/ADR-RES): 98.37%
- % GI (NCI/ADR-RES): 1.63%
- % G (OVCAR-3): 98.56%
- % GI (OVCAR-3): 1.44%
- % G (OVCAR-5): 98.30%
- % GI (OVCAR-5): 1.70%
- % G (PC-3): 91.14%
- % GI (PC-3): 8.86%
- % G (RPMI-8226): 101.28%
- % GI (RPMI-8226): −1.28%
- % G (SF-268): 91.85%
- % GI (SF-268): 8.15%
- % G (SF-539): 95.59%
- % GI (SF-539): 4.41%
- % G (SN12C): 97.21%
- % GI (SN12C): 2.79%
- % G (SNB-19): 99.29%
- % GI (SNB-19): 0.71%
- % G (SR): 88.92%
- % GI (SR): 11.08%
- % G (T-47D): 80.01%
- % GI (T-47D): 19.99%
- % G (TK-10): 110.14%
- % GI (TK-10): −10.14%
- % G (U251): 100.97%
- % GI (U251): −0.97%
- % G (UACC-257): 106.92%
- % GI (UACC-257): −6.92%
- % G (UACC-62): 97.59%
- % GI (UACC-62): 2.41%

Compound: NS(=O)(=O)c1ccc(N2CC(c3nc4ccccc4o3)CC2=O)cc1 (stereo not drawn) [Compound 20, 4-(4-(Benzo[d]oxazol-2-yl)-2-oxopyrrolidin-1-yl)benzenesulfonamide]
- % G (786-0): 98.99%
- % GI (786-0): 1.01%
- % G (ACHN): 89.48%
- % GI (ACHN): 10.52%
- % G (HCC-2998): 100.24%
- % GI (HCC-2998): −0.24%
- % G (HCT-116): 95.78%
- % G (HOP-62): 81.97%
- % GI (HOP-62): 18.03%
- % G (HOP-92): 77.78%
- % GI (HOP-92): 22.22%
- % G (HT29): 103.23%
- % GI (HT29): −3.23%
- % G (IGROV1): 101.63%
- % GI (IGROV1): −1.63%
- % G (K-562): 98.83%
- % GI (K-562): 1.17%
- % G (KM12): 101.16%
- % GI (KM12): −1.16%
- % G (LOX IMVI): 92.99%
- % GI (LOX IMVI): 7.01%
- % G (M14): 98.58%
- % GI (M14): 1.42%
- % G (MCF7): 92.32%
- % GI (MCF7): 7.68%
- % G (MOLT-4): 92.47%
- % GI (MOLT-4): 7.53%
- % G (NCI-H226): 92.75%
- % GI (NCI-H226): 7.25%
- % G (NCI-H23): 92.19%
- % GI (NCI-H23): 7.81%
- % G (NCI-H322M): 99.10%
- % GI (NCI-H322M): 0.90%
- % G (NCI/ADR-RES): 101.45%
- % GI (NCI/ADR-RES): −1.45%
- % G (OVCAR-3): 98.53%
- % GI (OVCAR-3): 1.47%
- % G (OVCAR-5): 92.08%
- % GI (OVCAR-5): 7.92%
- % G (PC-3): 88.11%
- % GI (PC-3): 11.89%
- % G (RPMI-8226): 103.53%
- % GI (RPMI-8226): −3.53%
- % G (SF-268): 87.43%
- % GI (SF-268): 12.57%
- % G (SF-539): 87.58%
- % GI (SF-539): 12.42%
- % G (SN12C): 95.50%
- % GI (SN12C): 4.50%
- % G (SNB-19): 97.02%
- % GI (SNB-19): 2.98%
- % G (SR): 93.20%
- % GI (SR): 6.80%
- % G (T-47D): 83.24%
- % G (TK-10): 114.82%
- % GI (TK-10): −14.82%
- % G (U251): 95.21%
- % GI (U251): 4.79%
- % G (UACC-257): 110.78%
- % GI (UACC-257): −10.78%
- % G (UACC-62): 92.78%
- % GI (UACC-62): 7.22%
